ChEMBL document CHEMBL1201862, “PubChem BioAssay data set” (2004)
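Cells were grown in 96-well plates and exposed to each compound for 48 hours at five concentrations; endpoints were interpolated linearly between bracketing concentrations, or set to the highest concentration if not reached. Here, GI50 denotes the concentration required for 50% inhibition of growth.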 The source made the active and inactive calls. Rule as the data show it: active = GI50 up to about 1.1 µM and inactive = higher.

Legend:
Assay in all cases: NCI-60 cell line screen, 48 h
786-0 = test system: 786-0
A549 = test system: A549
CCRF-CEM = test system: CCRF-CEM
COLO 205 = test system: COLO 205
EKVX = test system: EKVX
HCT-116 = test system: HCT-116
Hs-578T = test system: Hs-578T
K562 = test system: K562
KM12 = test system: KM12
LOX IMVI = test system: LOX IMVI
MDA-MB-231 = test system: MDA-MB-231
NCI-H23 = test system: NCI-H23
OVCAR-3 = test system: OVCAR-3
SF-268 = test system: SF-268
SK-MEL-28 = test system: SK-MEL-28
SK-MEL-2 = test system: SK-MEL-2
SK-MEL-5 = test system: SK-MEL-5
SR = test system: SR
SW-620 = test system: SW-620
U-251 = test system: U-251

Measured: GI50

Cc1ccc2c(ccc3[nH]cc(CNc4ccc(NS(C)(=O)=O)cc4)c32)n1
inactive: 786-0 17.8 µM | A549 23.1 µM | CCRF-CEM 23.6 µM | COLO 205 29 µM | EKVX 35.4 µM | HCT-116 18.7 µM | Hs-578T 27.4 µM | K562 18.7 µM | KM12 18.3 µM | LOX IMVI 20.6 µM | MDA-MB-231 25.3 µM | NCI-H23 18.7 µM | OVCAR-3 19.7 µM | SF-268 23 µM | SK-MEL-28 23.4 µM | SK-MEL-2 18.6 µM | SK-MEL-5 18.6 µM | SR 21.8 µM | SW-620 31.2 µM | U-251 25.9 µM

COc1cc(OC)c(NC2=NCCO2)cc1Cl
inactive: 786-0 30.1 µM | A549 46.3 µM | CCRF-CEM 54 µM | COLO 205 18.8 µM | EKVX 61.9 µM | HCT-116 34.4 µM | Hs-578T 61.7 µM | K562 83.9 µM | KM12 16.7 µM | LOX IMVI 31.4 µM | MDA-MB-231 26.1 µM | NCI-H23 22.2 µM | OVCAR-3 43.6 µM | SF-268 39.7 µM | SK-MEL-28 44 µM | SK-MEL-2 17.3 µM | SK-MEL-5 23.1 µM | SR 27.4 µM | SW-620 > 100 µM | U-251 39.7 µM

O=C(O)C(F)(F)C(F)(F)C(F)(F)C(F)(F)C(=O)O
inactive: 786-0 > 100 µM | A549 > 100 µM | CCRF-CEM > 100 µM | COLO 205 > 100 µM | EKVX > 100 µM | HCT-116 > 100 µM | Hs-578T > 100 µM | K562 > 100 µM | KM12 > 100 µM | LOX IMVI > 100 µM | MDA-MB-231 > 100 µM | NCI-H23 > 100 µM | OVCAR-3 > 100 µM | SF-268 > 100 µM | SK-MEL-28 > 100 µM | SK-MEL-2 > 100 µM | SK-MEL-5 > 100 µM | SR > 100 µM | SW-620 > 100 µM | U-251 > 100 µM
